Source: patent US20070117770A1, “Human ribosomal DNA (rDNA) and ribosomal RNA (rRNA) nucleic acids and uses thereof” (Cylene Pharmaceuticals, Inc., priority 2005, published 2007)

Tests used:
[1] = target: EphB2(h) (Homo sapiens, UniProt P29323); experiment: Protein kinase inhibition assay; type: biochemical; details: read-out: percent residual activity of EphB2(h)
Method: (§1) Certain compounds were tested for activity in protein kinase inhibition assays. All substrates were dissolved and diluted to working stocks in de-ionized water, apart from histone H1 (10× working stock in 20 mM MOPS pH 7.0), PDKtide (10× working stock in 50 mM Tris pH 7.0) ATF2 (which is typically stored at a 20× working stock in 50 mM Tris pH 7.5, 150 mM NaCl, 0.1 mM EGTA, 0.03% Brij-35, 50% glycerol, 1 mM benzamidine, 0.2 mM PMSF and 0.1% R-mercaptoethanol), KKLNRTLSFAEPG (SEQ ID NO:203) and RRRLSFAEPG (SEQ ID NO:204) (50 mM HEPES pH 7.4) and GGEEEEYFELVKKKK (SEQ ID NO:205) (20 mM MOPS pH 7.0). All kinases were pre-diluted to a 10× working concentration prior to addition into the assay. The composition of the dilution buffer for each kinase is detailed below.
(§2) In a final reaction volume of 25 μl, EphB2 (h) (5-10 mU) is incubated with 8 mM MOPS pH 7.0, 0.2 mM EDTA, 10 mM MnCl2, 0.1 mg/ml poly(Glu, Tyr) 4:1, 10 mM MgAcetate and [gamma-33P-ATP] (specific activity approx. 500 cpm/pmol, concentration as required). The reaction is initiated by the addition of the MgATP mix. After incubation for 40 minutes at room temperature, the reaction is stopped by the addition of 5 μl of a 3% phosphoric acid solution. 10 μl of the reaction is then spotted onto a Filtermat A and washed three times for 5 minutes in 75 mM phosphoric acid and once in methanol prior to drying and scintillation counting.

[2] = target: ErbB4(h) (Homo sapiens, UniProt Q15303); experiment: Protein kinase inhibition assay; type: biochemical; details: read-out: percent residual activity of ErbB4(h)
Method: as §1
as §2, with “μl, ErbB4” for “μl, EphB2”, “EDTA, 2.5” for “EDTA, 10”, “10 ll” for “10 μl”

[3] = target: IKKβ(h) (Homo sapiens, UniProt O14920); experiment: Protein kinase inhibition assay; type: biochemical; details: read-out: percent residual activity of IKKβ(h)
Method: as §1
as §2, with “IKKβ” for “EphB2”, “100 μM peptide,” for “10 mM MnCl2, 0.1 mg/ml poly(Glu, Tyr) 4:1,”, “P30 filtermat” for “Filtermat A”

[4] = target: MAPKAP-K3(h) (Homo sapiens, UniProt Q16644); experiment: Protein kinase inhibition assay; type: biochemical; details: read-out: percent residual activity of MAPKAP-K3(h)
Method: as §1
In a final reaction volume of 25 μl, MAPKAP-K3 (h) (5-10 mU) is incubated with 50 mM Na R-glycerophosphate pH 7.5, 0.1 mM EGTA, 30 μM KKLNRTLSVA (SEQ ID NO:212), 10 mM MgAcetate and [gamma-33P-ATP] (specific activity approx. 500 cpm/pmol, concentration as required). The reaction is initiated by the addition of the MgATP mix. After incubation for 40 minutes at room temperature, the reaction is stopped by the addition of 5 μl of a 3% phosphoric acid solution. […]

[5] = target: PKD2(h) (Homo sapiens, UniProt Q9BZL6); experiment: Protein kinase inhibition assay; type: biochemical; details: read-out: percent residual activity of PKD2(h)
Method: as §1
as §2, with “PKD2” for “EphB2”, “20” for “8”, “HEPES” for “MOPS”, “7.4, 0.03% Triton X-100, 30 μM KKLNRTLSVA (SEQ ID NO:212)” for “7.0, 0.2 mM EDTA, 10 mM MnCl2, 0.1 mg/ml poly(Glu, Tyr) 4:1,”, “P30 filtermat” for “Filtermat A”

[6] = system: HCT116 cells; experiment: Protein synthesis (3H-methionine incorporation); type: cell-based; details: at the tested concentrations
Method: Effects of compound A-1 and compound B-1 on DNA synthesis, RNA synthesis and protein synthesis were determined in HCT116 cells. HCT116 cells were plated overnight at 100,000 cells per mL. Next day cells were treated with increasing amounts of either compound A-1 or compound B-1 followed by one hour incubation with BrdU label (from a BrdU Cell proliferation Assay Kit, Calbiochem) to monitor DNA synthesis; […] of ^3H-uridine to monitor total RNA synthesis; […] of ^3H-methionine to monitor protein synthesis or plain media to monitor RNA Polymerase II-dependent RNA synthesis. DNA synthesis was assessed using a BrdU-ELISA (BrdU Cell proliferation Assay Kit, Calbiochem). To measure total RNA synthesis, total RNA from treated cells was isolated with a RNease kit (QIAGEN), levels of total RNA were assessed with Ribogreen reagent (Invitrogen) and the newly synthesized tritiated RNA was measured in a scintillation Counter (Perkin Elmer). To measure effects on protein synthesis, cells were lysed in a RIPA buffer, and total protein was precipitated with 10% TCA on a glass-filters. Newly synthesized tritiated protein was measured in a scintillation Counter (Perkin Elmer). Effects of drugs on […] RNA synthesis were assessed by monitoring levels of a c-myc mRNA, which has a relatively short half-life of approximately 30 minutes, by Taqman qRT-PCR (ABI).

Sequence of MAPKAP-K3(h) (Q16644 whole entry): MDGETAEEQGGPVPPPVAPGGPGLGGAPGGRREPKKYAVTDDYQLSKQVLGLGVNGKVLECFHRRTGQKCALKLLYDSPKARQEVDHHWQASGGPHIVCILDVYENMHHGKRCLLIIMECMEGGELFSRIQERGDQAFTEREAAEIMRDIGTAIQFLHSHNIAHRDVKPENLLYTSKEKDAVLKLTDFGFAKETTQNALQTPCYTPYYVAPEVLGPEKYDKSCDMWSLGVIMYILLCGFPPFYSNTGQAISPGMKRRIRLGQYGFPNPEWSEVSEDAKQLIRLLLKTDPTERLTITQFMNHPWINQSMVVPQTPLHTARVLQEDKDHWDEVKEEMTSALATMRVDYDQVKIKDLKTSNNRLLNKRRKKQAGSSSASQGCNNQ
Sequence of PKD2(h) (Q9BZL6 whole entry): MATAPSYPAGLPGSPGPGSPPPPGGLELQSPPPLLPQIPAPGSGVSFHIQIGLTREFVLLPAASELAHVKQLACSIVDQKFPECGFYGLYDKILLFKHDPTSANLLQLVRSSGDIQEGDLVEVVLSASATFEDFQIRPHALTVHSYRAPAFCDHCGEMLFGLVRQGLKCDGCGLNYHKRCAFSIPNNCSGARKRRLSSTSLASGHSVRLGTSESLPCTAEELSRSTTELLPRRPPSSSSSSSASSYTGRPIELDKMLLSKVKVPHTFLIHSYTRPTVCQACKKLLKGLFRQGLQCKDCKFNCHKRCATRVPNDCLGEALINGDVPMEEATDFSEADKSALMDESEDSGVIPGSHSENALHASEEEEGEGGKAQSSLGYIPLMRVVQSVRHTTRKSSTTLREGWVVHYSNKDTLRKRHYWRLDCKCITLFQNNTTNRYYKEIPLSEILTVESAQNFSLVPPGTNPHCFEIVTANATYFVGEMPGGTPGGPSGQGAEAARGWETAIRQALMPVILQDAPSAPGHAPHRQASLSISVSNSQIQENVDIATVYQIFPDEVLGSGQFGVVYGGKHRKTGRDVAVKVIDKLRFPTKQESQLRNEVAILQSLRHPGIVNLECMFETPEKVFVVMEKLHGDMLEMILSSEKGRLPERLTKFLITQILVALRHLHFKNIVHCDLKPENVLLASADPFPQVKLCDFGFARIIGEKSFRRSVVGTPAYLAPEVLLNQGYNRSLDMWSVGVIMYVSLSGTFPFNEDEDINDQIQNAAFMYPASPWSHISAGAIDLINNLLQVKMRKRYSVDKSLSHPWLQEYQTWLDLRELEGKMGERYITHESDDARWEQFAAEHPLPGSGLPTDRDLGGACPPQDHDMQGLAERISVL
Sequence of IKKβ(h) (O14920 whole entry): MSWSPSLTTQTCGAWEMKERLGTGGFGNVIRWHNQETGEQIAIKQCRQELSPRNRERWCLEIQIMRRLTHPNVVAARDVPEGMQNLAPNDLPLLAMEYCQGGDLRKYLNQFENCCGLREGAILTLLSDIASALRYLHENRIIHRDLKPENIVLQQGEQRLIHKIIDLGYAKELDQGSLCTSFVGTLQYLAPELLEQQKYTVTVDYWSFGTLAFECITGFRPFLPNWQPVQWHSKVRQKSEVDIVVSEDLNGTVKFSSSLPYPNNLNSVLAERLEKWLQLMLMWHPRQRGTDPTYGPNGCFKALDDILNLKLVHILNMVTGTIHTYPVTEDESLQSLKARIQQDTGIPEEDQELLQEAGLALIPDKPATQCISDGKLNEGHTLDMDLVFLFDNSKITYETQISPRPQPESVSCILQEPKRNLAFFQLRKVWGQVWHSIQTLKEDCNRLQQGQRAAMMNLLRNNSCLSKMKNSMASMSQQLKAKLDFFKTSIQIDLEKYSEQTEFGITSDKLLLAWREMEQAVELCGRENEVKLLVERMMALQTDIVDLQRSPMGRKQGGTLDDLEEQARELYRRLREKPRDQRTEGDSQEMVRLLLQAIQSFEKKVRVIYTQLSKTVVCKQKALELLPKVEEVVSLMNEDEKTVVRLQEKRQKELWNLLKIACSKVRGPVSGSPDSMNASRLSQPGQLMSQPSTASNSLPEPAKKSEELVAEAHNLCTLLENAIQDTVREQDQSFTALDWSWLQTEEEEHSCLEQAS
Sequence of ErbB4(h) (Q15303 26-1308): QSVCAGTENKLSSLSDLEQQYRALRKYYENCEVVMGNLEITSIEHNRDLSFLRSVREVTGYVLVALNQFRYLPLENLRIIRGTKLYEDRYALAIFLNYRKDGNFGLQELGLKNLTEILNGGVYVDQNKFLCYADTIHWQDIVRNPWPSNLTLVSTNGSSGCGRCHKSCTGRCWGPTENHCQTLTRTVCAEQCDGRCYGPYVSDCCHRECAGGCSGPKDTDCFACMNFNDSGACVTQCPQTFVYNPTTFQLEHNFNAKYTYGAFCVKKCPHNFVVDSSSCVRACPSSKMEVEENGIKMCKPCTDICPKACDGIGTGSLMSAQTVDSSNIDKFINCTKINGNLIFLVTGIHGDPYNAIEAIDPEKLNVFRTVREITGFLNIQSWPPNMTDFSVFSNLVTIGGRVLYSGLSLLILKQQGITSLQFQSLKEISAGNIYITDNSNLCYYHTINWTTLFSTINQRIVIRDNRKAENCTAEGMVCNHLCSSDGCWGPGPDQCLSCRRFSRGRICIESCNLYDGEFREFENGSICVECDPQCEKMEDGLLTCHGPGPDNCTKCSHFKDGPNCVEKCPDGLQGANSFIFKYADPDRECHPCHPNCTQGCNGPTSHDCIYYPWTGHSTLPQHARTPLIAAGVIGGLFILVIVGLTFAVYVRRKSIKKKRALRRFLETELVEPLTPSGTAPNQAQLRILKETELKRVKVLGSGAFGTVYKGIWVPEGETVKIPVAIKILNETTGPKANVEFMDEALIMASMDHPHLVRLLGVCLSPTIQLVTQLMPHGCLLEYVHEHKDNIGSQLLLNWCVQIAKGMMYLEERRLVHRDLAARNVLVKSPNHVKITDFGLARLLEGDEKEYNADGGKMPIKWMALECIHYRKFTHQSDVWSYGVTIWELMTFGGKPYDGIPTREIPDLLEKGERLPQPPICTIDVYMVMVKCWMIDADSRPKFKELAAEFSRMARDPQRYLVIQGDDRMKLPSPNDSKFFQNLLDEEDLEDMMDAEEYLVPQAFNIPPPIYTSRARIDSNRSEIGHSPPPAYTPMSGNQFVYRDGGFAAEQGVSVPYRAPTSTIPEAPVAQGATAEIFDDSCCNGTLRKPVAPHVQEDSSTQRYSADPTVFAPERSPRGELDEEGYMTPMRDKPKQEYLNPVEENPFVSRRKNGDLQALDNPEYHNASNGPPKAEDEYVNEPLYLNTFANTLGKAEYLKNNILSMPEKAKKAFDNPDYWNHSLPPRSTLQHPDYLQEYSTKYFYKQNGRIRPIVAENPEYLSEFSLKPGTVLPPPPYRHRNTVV
Sequence of EphB2(h) (P29323 19-1055): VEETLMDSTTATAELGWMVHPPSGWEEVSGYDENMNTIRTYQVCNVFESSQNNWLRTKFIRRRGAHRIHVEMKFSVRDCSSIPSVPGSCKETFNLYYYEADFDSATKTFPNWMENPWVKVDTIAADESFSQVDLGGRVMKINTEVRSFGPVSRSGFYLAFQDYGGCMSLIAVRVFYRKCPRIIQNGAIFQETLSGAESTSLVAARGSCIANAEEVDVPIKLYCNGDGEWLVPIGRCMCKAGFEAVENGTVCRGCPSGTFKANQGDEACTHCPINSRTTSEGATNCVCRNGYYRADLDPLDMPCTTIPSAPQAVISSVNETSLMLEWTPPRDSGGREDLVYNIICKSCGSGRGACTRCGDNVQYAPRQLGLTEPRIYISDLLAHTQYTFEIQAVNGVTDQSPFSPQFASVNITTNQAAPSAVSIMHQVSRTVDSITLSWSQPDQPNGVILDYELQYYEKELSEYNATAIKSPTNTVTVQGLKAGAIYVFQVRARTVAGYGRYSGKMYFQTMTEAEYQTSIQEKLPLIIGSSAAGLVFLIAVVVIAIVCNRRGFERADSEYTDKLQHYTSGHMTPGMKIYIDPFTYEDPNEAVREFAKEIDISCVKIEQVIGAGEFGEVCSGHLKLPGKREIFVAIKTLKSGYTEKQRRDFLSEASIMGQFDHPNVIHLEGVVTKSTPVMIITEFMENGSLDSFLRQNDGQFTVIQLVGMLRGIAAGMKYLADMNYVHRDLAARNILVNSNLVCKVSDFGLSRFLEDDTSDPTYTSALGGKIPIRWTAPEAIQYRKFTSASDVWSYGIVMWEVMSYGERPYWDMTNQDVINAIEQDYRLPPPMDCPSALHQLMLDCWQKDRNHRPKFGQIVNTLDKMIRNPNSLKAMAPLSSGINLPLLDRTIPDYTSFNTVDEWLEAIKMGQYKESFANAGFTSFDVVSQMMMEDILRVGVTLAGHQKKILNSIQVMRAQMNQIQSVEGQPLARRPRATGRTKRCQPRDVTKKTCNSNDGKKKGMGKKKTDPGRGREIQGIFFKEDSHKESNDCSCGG

Row | remaining activity at 2.5 µM [1] [%] | remaining activity at 2.5 µM [2] [%] | remaining activity at 2.5 µM [3] [%] | remaining activity at 2.5 µM [4] [%] | remaining activity at 2.5 µM [5] [%] | Structure (SMILES) | effect on protein synthesis [6]
1 | 96 | 92 | 56 | 94 | 79 | CN1CCCC1CCNC(=O)c1cn2c3c(c(N4CCC(c5cnccn5)C4)c(F)cc3c1=O)Oc1cc3ccccc3cc1-2 (stereo not drawn) [Compound A-1] | no measureable effect
2 | 106 | 107 | 105 | 109 | 98 | CC(=O)N1CCN(c2ccc3c(=O)c(C(=O)NCCN4CCCC4)c4n(C)c5ccccc5n4c3n2)CC1 [Compound B-1] | no measureable effect
